In data set [1] the test system is ovariectomized rats. More on the design: species or system Sprague Dawley rats. The conditions noted are these: rat, in vivo, po. The source says: (§1) Seventy-five day old female Sprague Dawley rats (weight range of 200 to 225g) were obtained from Charles River Laboratories (Portage, MI). The animals were either bilaterally ovariectomized (OVX) or exposed to a Sham surgical procedure at Charles River Laboratories, and then shipped after one week. Upon arrival, they were housed in metal hanging cages in groups of 3 or 4 per cage and had ad libitum access to food (calcium content approximately 0.5%) and water for one week. Room temperature was maintained at 22.2° ± 1.7° C with a minimum relative humidity of 40%. The photoperiod in the room was 12 hours light and 12 hours dark.
(§2) After a one week acclimation period (therefore, two weeks post-OVX) daily dosing with test compound was initiated. 17a-ethynyl estradiol or the test compound were given orally, unless otherwise stated, as a suspension in 1% carboxymethylcellulose or dissolved in 20% cyclodextrin. Animals were dosed daily for 4 days. Following the dosing regimen, animals were weighed and anesthetized with a ketamine: Xylazine (2:1, V:V) mixture and a blood sample was collected by cardiac puncture. The animals were then sacrificed by asphyxiation with CO2, the uterus was removed through a midline incision, and a wet uterine weight was determined.
Uteri were kept at 4° C until time of enzymatic analysis. The uteri were then homogenized in 50 volumes of 50 mM Tris buffer (pH - 8.0) containing 0.005% Triton X-100. Upon addition of 0.01% hydrogen peroxide and 10 mM O-phenylenediamine (final concentrations) in Tris buffer, increase in absorbance was monitored for one minute at 450 nm. The presence of eosonophils in the uterus is an indication of estrogenic activity of a compound. The maximal velocity of a 15 second interval was determined over the initial, linear portion of the reaction curve.

For data set [2], the system named is ovariectomized rats. The experiment in a line: Serum cholesterol analysis (OVX rat, 4-day dosing). The data set is classed as in vivo, Sprague Dawley rats. The conditions noted are these: Rattus norvegicus, po, 96 h, daily for 4 days, read-out: Serum Cholesterol (% decrease vs. OVX).
Description: as §1, §2
Blood samples were allowed to clot at room temperature for 2 hours, and serum was obtained following centrifugation for 10 minutes at 3000 rpm. Serum cholesterol was determined using a Boehringer Mannheim Diagnostics high performance cholesterol assay. Briefly the cholesterol was oxidized to cholest-4-en-3-one and hydrogen peroxide. The hydrogen peroxide was then reacted with phenol and 4-aminophenazone in the presence of peroxidase to produce a p-quinone imine dye, which was read spectrophotemetrically at 500 nm. Cholesterol concentration was then calculated against a standard curve. The entire assay was automated using a Biomek Automated Workstation.

Data set [3] has as its system MCF-7 breast adenocarcinoma cells. The data set is described as follows: MCF-7 Proliferation Assay (tritiated thymidine). It is filed as cell-based. Conditions: Homo sapiens, MCF7; MCF-7 cells, 48 hours with drug, tritiated thymidine pulse 4 hours. The protocol:
MCF-7 breast adenocarcinoma cells (ATCC HTB 22) were maintained in MEM (minimal essential medium, phenol red-free, Sigma, St. Louis, MO) supplimented with 10% fetal bovine serum (FBS) (V/V), L-glutamine (2 mM), sodium pyruvate (1 mM), HEPES {(N-[2-hydroxyethyl]piperazine-N'-[2-ethanesulfonic acid]10 mM}, non-essential amino acids and bovine insulin (1 ug/mL) (maintenance medium). Ten days prior to assay, MCF-7 cells were switched to maintenance medium supplemented with 10% dextran coated charcoal stripped fetal bovine serum (DCC-FBS) assay medium) in place of 10% FBS to deplete internal stores of steroids. MCF-7 cells were removed from maintenance flasks using cell dissociation medium (Ca++/Mg++ free HBSS (phenol red-free) supplemented with 10 mM HEPES and 2 mM EDTA). Cells were washed twice with assay medium and adjusted to 80,000 cells/mL. Approximately […] (8,000 cells) were added to flat-bottom microculture wells (Costar 3596) and incubated at 37° C in a 5% CO2 humidified incubator for 48 hours to allow for cell adherence and equilibration after transfer. Serial dilutions of drugs or DMSO as a diluent control were prepared in assay medium and […] to triplicate microcultures followed by […] assay medium for a final volume of […]. After an additional 48 hours at 37° C in a 5% CO2 humidified incubator, microcultures were pulsed with tritiated thymidine (1 uCi/well) for 4 hours. Cultures were terminated by freezing at -70° C for 24 hours followed by thawing and harvesting of microcultures using a Skatron Semiautomatic Cell Harvester. Samples were counted by liquid scintillation using a Wallac BetaPlace b counter. Results in Table 4 below show the IC50 for certain compounds of the present invention.

Data set [4] deals with ovariectomized test animals. The experiment in a line: Osteoporosis Test Procedure (OVX rat, 35-day dosing, distal femur metaphysis X-ray image analysis). The data set is classed as in vivo, Sprague Dawley rats. Conditions: OVX rats, daily for 35 days, mean ± SEM.
Description: as §1
Following the General Preparation Procedure, infra, the rats were treated daily for 35 days (6 rats per treatment group) and sacrificed by carbon dioxide asphyxiation on the 36th day. The 35 day time period was sufficient to allow maximal reduction in bone density, measured as described herein. At the time of sacrifice, the uteri were removed, dissected free of extraneous tissue, and the fluid contents were expelled before determination of wet weight in order to confirm estrogen deficiency associated with complete ovariectomy. […] The uteri were then placed in 10% neutral buffered formalin to allow for subsequent histological analysis.
The right femurs were excised and digitilized x-rays generated and analyzed by an image analysis program (NIH image) at the distal metaphysis. The proximal aspect of the tibiae from these animals were also scanned by quantitative computed tomography.
In accordance with the above procedures, compounds of the present invention and ethynyl estradiol (EE2) in 20% hydroxypropyl b-cyclodextrin were orally administered to test animals. Distal femur metaphysis data presented in Tables 2 and 3 below are the results of formula I compound treatments compared to intact and ovariectomized test animals. Results are reported as the mean ± the standard error of the mean.

Where a name gives a salt, the structure may show the parent alone. Read-outs that look alike come from different tables or passages of the source.

For orientation: IC50 means the concentration that inhibits the measured activity by half. A low value points to higher potency. On to `Oc1ccc(-c2sc3cc(O)ccc3c2Oc2ccc(OCCN3CCCC3)cc2)cc1` [Example 21, [6-Hydroxy-3-[4-[2-(1-pyrolidinyl)ethoxy]phenoxy]-2-(4-hydroxyphenyl)]benzo[b]thiophene], for which the “Uterine EPO (V. max)” value in data set [1] (0.01 mg/kg) is 1.2. Further, the “Uterine EPO (V. max)” value in data set [1] (0.1 mg/kg) is 4.8. The “Uterine EPO (V. max)” value in data set [1] (1 mg/kg) worked out at 9.3. Further, in data set [2], the inhibition in vivo at 0.01 mg/kg amounted to 26.8%, the inhibition in vivo at 0.1 mg/kg turned out to be 47.5% and the inhibition in vivo at 1 mg/kg is 54.4%. In addition, the IC50 in data set [3] was 0.05 nM.
Turning to `COc1ccc(-c2sc3cc(OC)ccc3c2Oc2ccc(OCCN3CCCCC3)cc2)cc1` [Example 10, [6-methoxy-3-[4-[2-(1-piperidinyl)ethoxy]-phenoxy]-2-(4-methoxyphenyl)]benzo[b]thiophene], the “Uterine EPO (V. max)” value was 12.0 in data set [1] (0.1 mg/kg), 17.7 in data set [1] (1 mg/kg) and 4.8 in data set [1] (10 mg/kg). The inhibition in vivo at 0.1 mg/kg in data set [2] was found to be 50.2%. For the same molecule, the inhibition in vivo at 1 mg/kg in data set [2] was determined as 59%. For the same molecule, the inhibition in vivo at 10 mg/kg in data set [2] was 38.9%. Moreover, the “Distal Femur Metaphysis (X-ray Image Analysis-Gray Score)” value in data set [4] (Table 3, oral, dose 0.1 mg/kg, OVX control 6.2 ± 1.4, Sham 31.1 ± 6.3) is on record as 15.3 ± 3.0; in data set [4] (Table 3, oral, dose 1.0 mg/kg, OVX control 6.2 ± 1.4, Sham 31.1 ± 6.3), 15.2 ± 3.7; in data set [4] (Table 3, oral, dose 3.0 mg/kg, OVX control 6.2 ± 1.4, Sham 31.1 ± 6.3) it was 18.5 ± 3.2∗. Further, 2 nM corresponded to half-maximal inhibition in data set [3] (IC50).
`Oc1ccc(-c2sc3cc(O)ccc3c2Sc2ccc(OCCN3CCCCC3)cc2)cc1` [Example 53, [6-Hydroxy-3-[4-[2-(1-piperidinyl)ethoxy]-thiophenoxy]-2-(4-hydroxyphenyl)]benzo[b]thiophene]: the “Uterine EPO (V. max)” value in data set [1] (0.1 mg/kg) turned out to be 0.9. Further, the “Uterine EPO (V. max)” value in data set [1] (1 mg/kg) was determined as 1.3. For the same molecule, the “Uterine EPO (V. max)” value in data set [1] (10 mg/kg) stood at 4.8. In addition, in data set [2], the inhibition in vivo at 0.1 mg/kg was found to be 62.7%, the inhibition in vivo at 1 mg/kg turned out to be 57.5% and the inhibition in vivo at 10 mg/kg turned out to be 58.7%. In addition, in data set [3], the half-inhibitory concentration (IC50) was found to be 0.28 nM.
For the molecule `Oc1ccc(-c2sc3cc(O)ccc3c2Oc2ccc(OCCN3CCCCC3)cc2)cc1` [Example 19, [6-hydroxy-3-[4-[2-(1-piperidinyl)-ethoxy]phenoxy]-2-(4-hydroxyphenyl)]benzo[b]thiophene oxalate], the “Uterine EPO (V. max)” value in data set [1] (0.01 mg/kg) was 2.1; in data set [1] (0.1 mg/kg), 2.4; in data set [1] (1 mg/kg) it was 3.6. The inhibition in vivo at 0.01 mg/kg in data set [2] was 25.1%. In addition, the inhibition in vivo at 0.1 mg/kg in data set [2] came to 45.3%. Moreover, in data set [2], the inhibition in vivo at 1 mg/kg amounted to 53.6%. For the same molecule, the “Distal Femur Metaphysis (X-ray Image Analysis-Gray Score)” value is recorded as 14.7 ± 1.9 in data set [4] (Table 2, oral in 20% hydroxypropyl b-cyclodextrin, dose 0.1 mg/kg, OVX control 8.1 ± 1.8, Sham 27.2 ± 6.0); 15.0 ± 3.5∗ in data set [4] (Table 2, oral, dose 1.0 mg/kg, OVX control 8.1 ± 1.8, Sham 27.2 ± 6.0); 15.3 ± 4.0∗ in data set [4] (Table 2, oral, dose 10.0 mg/kg, OVX control 8.1 ± 1.8, Sham 27.2 ± 6.0). The molecule also gave an IC50 in data set [3] of 0.028 nM.
As for `Oc1ccc(-c2sc3ccccc3c2Oc2ccc(OCCN3CCCC3)cc2)cc1` [Example 3, [3-[4-[2-(1-pyrolidinyl)ethoxy]phenoxy]-2-(4-hydroxyphenyl)]benzo[b]thiophene], in data set [1] (0.01 mg/kg), the “Uterine EPO (V. max)” value was 1.8. Further, in data set [1] (0.1 mg/kg), the “Uterine EPO (V. max)” value was found to be 4.8. For the same molecule, the “Uterine EPO (V. max)” value in data set [1] (1 mg/kg) worked out at 5.4. Also, in data set [2], the inhibition in vivo at 0.01 mg/kg worked out at 50.6%, the inhibition in vivo at 0.1 mg/kg amounted to 47.8% and the inhibition in vivo at 1 mg/kg was 49.2%. Besides, the IC50 in data set [3] was found to be 4 nM.
`CCN(CC)CCOc1ccc(Oc2c(-c3ccc(O)cc3)sc3cc(O)ccc23)cc1` [Example 23, [6-Hydroxy-3-[4-[2-(1-N,N-diethylamino)ethoxy]phenoxy]-2-(4-hydroxyphenyl)]benzo[b]thiophene]: the “Uterine EPO (V. max)” value in data set [1] (0.01 mg/kg) was 3.3. Besides, the “Uterine EPO (V. max)” value in data set [1] (0.1 mg/kg) is on record as 84.3. Also, the “Uterine EPO (V. max)” value in data set [1] (1 mg/kg) was found to be 150.6. Further, in data set [2], the inhibition in vivo at 0.01 mg/kg was found to be 36.2%, the inhibition in vivo at 0.1 mg/kg stood at 47.2% and the inhibition in vivo at 1 mg/kg came to 66.1%. Further, the IC50 in data set [3] was determined as 0.08 nM.

For the origin of these results see patent EP0729956B1, “Benzothiophene compounds, intermediates, compositions, and methods” (ELI LILLY AND COMPANY, priority 1995, dated 1996).
